Assay results from PubChem BioAssay (NCI).
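Cultured in 96-well plates, cells were exposed to test compound for 48 hours across five concentrations. TGI marks complete inhibition of growth.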

What was measured:
Experiment in all cases: DTP human tumour cell line panel, 48 h
HCT-116 colon = tested on: HCT-116 colon
OVCAR-8 ovarian = tested on: OVCAR-8 ovarian
DU-145 prostate = tested on: DU-145 prostate
NCI/ADR-RES ovarian = tested on: NCI/ADR-RES ovarian
LOX IMVI melanoma = tested on: LOX IMVI melanoma
MOLT-4 leukemia = tested on: MOLT-4 leukemia
SR leukemia = tested on: SR leukemia
PC-3 prostate = tested on: PC-3 prostate
IGROV1 ovarian = tested on: IGROV1 ovarian
SW-620 colon = tested on: SW-620 colon
HL-60(TB) leukemia = tested on: HL-60(TB) leukemia
K-562 leukemia = tested on: K-562 leukemia
CAKI-1 renal = tested on: CAKI-1 renal
A549 NSCLC = tested on: A549 NSCLC
NCI-H460 lung = tested on: NCI-H460 lung
SK-MEL-5 melanoma = tested on: SK-MEL-5 melanoma
U251 CNS = tested on: U251 CNS
NCI-H522 lung = tested on: NCI-H522 lung
HT29 colon = tested on: HT29 colon
NCI-H23 lung = tested on: NCI-H23 lung
ACHN renal = tested on: ACHN renal
KM12 colon = tested on: KM12 colon
SF-295 CNS = tested on: SF-295 CNS
NCI-H226 lung = tested on: NCI-H226 lung
HCT-15 colon = tested on: HCT-15 colon
MALME-3M melanoma = tested on: MALME-3M melanoma
TK-10 renal = tested on: TK-10 renal
MDA-MB-435 = tested on: MDA-MB-435
M14 melanoma = tested on: M14 melanoma
HCC-2998 colon = tested on: HCC-2998 colon
MDA-MB-231 breast = tested on: MDA-MB-231 breast
CCRF-CEM leukemia = tested on: CCRF-CEM leukemia
HS 578T breast = tested on: HS 578T breast
SF-539 CNS = tested on: SF-539 CNS
SNB-19 CNS = tested on: SNB-19 CNS
SK-MEL-2 melanoma = tested on: SK-MEL-2 melanoma
HOP-92 NSCLC = tested on: HOP-92 NSCLC
HOP-62 NSCLC = tested on: HOP-62 NSCLC
UACC-257 melanoma = tested on: UACC-257 melanoma
MCF7 breast = tested on: MCF7 breast
BT-549 breast = tested on: BT-549 breast
SF-268 CNS = tested on: SF-268 CNS
786-0 renal = tested on: 786-0 renal
MDA-N = tested on: MDA-N
COLO 205 colon = tested on: COLO 205 colon
EKVX NSCLC = tested on: EKVX NSCLC
SK-MEL-28 melanoma = tested on: SK-MEL-28 melanoma
A498 renal = tested on: A498 renal
RPMI-8226 leukemia = tested on: RPMI-8226 leukemia
OVCAR-3 ovarian = tested on: OVCAR-3 ovarian
SN12C renal = tested on: SN12C renal
OVCAR-4 ovarian = tested on: OVCAR-4 ovarian
UO-31 renal = tested on: UO-31 renal

Cc1cccc2oc3c(CC(=O)O)cccc3c(=O)c12
TGI (HCT-116 colon): > 100 µM | TGI (OVCAR-8 ovarian): > 100 µM | TGI (DU-145 prostate): > 100 µM | TGI (NCI/ADR-RES ovarian): > 100 µM | TGI (LOX IMVI melanoma): > 100 µM | TGI (MOLT-4 leukemia): > 100 µM | TGI (SR leukemia): > 100 µM | TGI (PC-3 prostate): > 100 µM | TGI (IGROV1 ovarian): > 100 µM | TGI (SW-620 colon): > 100 µM | TGI (HL-60(TB) leukemia): > 100 µM | TGI (K-562 leukemia): > 100 µM | TGI (CAKI-1 renal): > 100 µM | TGI (A549 NSCLC): > 100 µM | TGI (NCI-H460 lung): > 100 µM | TGI (SK-MEL-5 melanoma): > 100 µM | TGI (U251 CNS): > 100 µM | TGI (NCI-H522 lung): > 100 µM | TGI (HT29 colon): > 100 µM | TGI (NCI-H23 lung): > 100 µM | TGI (ACHN renal): > 100 µM | TGI (KM12 colon): > 100 µM | TGI (SF-295 CNS): > 100 µM | TGI (NCI-H226 lung): > 100 µM | TGI (HCT-15 colon): > 100 µM | TGI (MALME-3M melanoma): > 100 µM | TGI (TK-10 renal): > 100 µM | TGI (MDA-MB-435): > 100 µM | TGI (M14 melanoma): > 100 µM | TGI (HCC-2998 colon): 40.9 µM | TGI (MDA-MB-231 breast): > 100 µM | TGI (CCRF-CEM leukemia): > 100 µM | TGI (HS 578T breast): > 100 µM | TGI (SF-539 CNS): > 100 µM | TGI (SNB-19 CNS): > 100 µM | TGI (SK-MEL-2 melanoma): 17.4 µM | TGI (HOP-92 NSCLC): > 100 µM | TGI (HOP-62 NSCLC): > 100 µM | TGI (UACC-257 melanoma): > 100 µM | TGI (MCF7 breast): > 100 µM | TGI (BT-549 breast): > 100 µM | TGI (SF-268 CNS): > 100 µM | TGI (786-0 renal): > 100 µM | TGI (MDA-N): > 100 µM | TGI (COLO 205 colon): > 100 µM | TGI (EKVX NSCLC): > 100 µM | TGI (SK-MEL-28 melanoma): > 100 µM | TGI (A498 renal): > 100 µM | TGI (RPMI-8226 leukemia): > 100 µM | TGI (OVCAR-3 ovarian): > 100 µM | TGI (SN12C renal): > 100 µM | TGI (OVCAR-4 ovarian): > 100 µM | TGI (UO-31 renal): > 100 µM
